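Method: 48-hour compound exposure of cells in 96-well plates, five concentrations, linear interpolation of endpoints. GI50 marks 50% less growth. TGI denotes the concentration required for complete inhibition of growth.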
Columns and labels:
Assay in all cases: NCI tumour cell line growth inhibition, 48 h
CCRF-CEM leukemia = system: CCRF-CEM leukemia
HS 578T breast = system: HS 578T breast
MCF7 breast = system: MCF7 breast
NCI-H460 lung = system: NCI-H460 lung
OVCAR-3 ovarian = system: OVCAR-3 ovarian
OVCAR-5 ovarian = system: OVCAR-5 ovarian
RXF 393 renal = system: RXF 393 renal
NCI-H226 lung = system: NCI-H226 lung
DLD-1 colon = system: DLD-1 colon
M19-MEL melanoma = system: M19-MEL melanoma
SNB-78 CNS = system: SNB-78 CNS
HOP-18 NSCLC = system: HOP-18 NSCLC

Work on `S=C1N(c2ccc(Cl)cc2)C2=C(N=Nc3ccccc3)C(=Nc3ccccc3S2)N1c1ccccn1` yielded a TGI (CCRF-CEM leukemia) of 22.9 µM, a TGI (HS 578T breast) of 32.7 µM and a TGI (MCF7 breast) of 15.2 µM. For the same compound, the TGI (NCI-H460 lung) was 25.7 µM, the TGI (OVCAR-3 ovarian) was 27.2 µM and the TGI (OVCAR-5 ovarian) was 35.1 µM.
`N#C/C=C1\C=CC(O)C(O)C1OC1OC(CO)C(O)C(O)C1O` (stereo not given) was tested, and the TGI (CCRF-CEM leukemia) was > 100 µM, the TGI (HS 578T breast) was > 100 µM and the TGI (MCF7 breast) was > 100 µM. The TGI (NCI-H460 lung) was > 100 µM, the TGI (OVCAR-3 ovarian) was > 100 µM and the TGI (OVCAR-5 ovarian) was > 100 µM. For the same compound, the TGI (RXF 393 renal) was > 100 µM.
For `O=S(=O)(O)c1c(N=Nc2c(O)ccc3ccccc23)ccc2ccccc12`, the TGI (CCRF-CEM leukemia) was > 100 µM, the TGI (HS 578T breast) was > 100 µM and the TGI (NCI-H226 lung) was > 100 µM. The TGI (OVCAR-3 ovarian) was > 100 µM, the TGI (OVCAR-5 ovarian) was > 100 µM and the TGI (RXF 393 renal) was > 100 µM.
For `O=S(O)c1cc(Cl)cc(Cl)c1O`, the TGI (CCRF-CEM leukemia) was > 100 µM, the TGI (DLD-1 colon) was > 100 µM and the TGI (M19-MEL melanoma) was > 100 µM. For the same compound, the TGI (NCI-H460 lung) was > 100 µM, the TGI (OVCAR-3 ovarian) was > 100 µM and the TGI (OVCAR-5 ovarian) was > 100 µM. The TGI (RXF 393 renal) was > 100 µM and the TGI (SNB-78 CNS) was > 100 µM.
For `CN(C)Cc1ccc(C(=O)Nc2ccc3ncnc(Nc4ccc(Oc5cccc(F)c5)c(Cl)c4)c3c2)cc1`, the GI50 (CCRF-CEM leukemia) was 1.65 µM, the TGI (CCRF-CEM leukemia) was 4.65 µM and the GI50 (MCF7 breast) was 1.54 µM. The TGI (MCF7 breast) was 3 µM, the GI50 (NCI-H460 lung) was 1.76 µM and the TGI (NCI-H460 lung) was 3.31 µM. For the same compound, the GI50 (OVCAR-3 ovarian) was 1.5 µM, the TGI (OVCAR-3 ovarian) was 2.92 µM and the GI50 (OVCAR-5 ovarian) was 1.64 µM. The TGI (OVCAR-5 ovarian) was 3.11 µM, the GI50 (RXF 393 renal) was 1.5 µM and the TGI (RXF 393 renal) was 2.99 µM.
With `S=C(Nc1ccc(Cl)cc1)Nc1ccc(Cl)cc1` (tested in a mixture with another compound) the GI50 (CCRF-CEM leukemia) was 1.61 µM, the TGI (CCRF-CEM leukemia) was 9.83 µM and the GI50 (HS 578T breast) was 2.37 µM. For the same compound, the TGI (HS 578T breast) was > 100 µM, the GI50 (MCF7 breast) was 2.89 µM and the TGI (MCF7 breast) was 8.09 µM. The GI50 (NCI-H226 lung) was 2.33 µM, the TGI (NCI-H226 lung) was 7.76 µM and the GI50 (NCI-H460 lung) was 1.61 µM. It also gave a TGI (NCI-H460 lung) of 4.46 µM, a GI50 (OVCAR-3 ovarian) of 1.69 µM and a TGI (OVCAR-3 ovarian) of 4.48 µM. For the same compound, the GI50 (OVCAR-5 ovarian) was 2.38 µM, the TGI (OVCAR-5 ovarian) was 9.71 µM and the GI50 (RXF 393 renal) was 2.13 µM. It also gave a TGI (RXF 393 renal) of 5.29 µM.
`CC(=O)OCC1OC(O[C@@H]2c3c(O)c4c(c(O)c3C3=C(NN(c5ccc([N+](=O)[O-])cc5[N+](=O)[O-])[Se]3=O)[C@@]2(C)O)C(=O)c2ccccc2C4=O)C(OC(C)=O)C(OC(C)=O)C1OC(C)=O` (stereo not given in full) showed a TGI (CCRF-CEM leukemia) of 1.08 µM, a TGI (HS 578T breast) of 0.927 µM and a TGI (MCF7 breast) of 0.498 µM. It also gave a TGI (NCI-H226 lung) of 0.947 µM, a TGI (NCI-H460 lung) of 0.72 µM and a TGI (OVCAR-3 ovarian) of 0.336 µM. For the same compound, the TGI (OVCAR-5 ovarian) was 2.07 µM and the TGI (RXF 393 renal) was 3.81 µM.
With `Fc1ccc(-c2ccc(-c3nnc(-c4cc(F)c(Cl)cc4Cl)o3)o2)cc1Cl` the GI50 (CCRF-CEM leukemia) was 35 µM, the TGI (CCRF-CEM leukemia) was > 100 µM and the GI50 (HS 578T breast) was 22.3 µM. For the same compound, the TGI (HS 578T breast) was 67.6 µM, the GI50 (MCF7 breast) was 26.8 µM and the TGI (MCF7 breast) was > 100 µM. It also gave a GI50 (NCI-H226 lung) of 20.9 µM, a TGI (NCI-H226 lung) of 76.1 µM and a GI50 (NCI-H460 lung) of 29.7 µM. The TGI (NCI-H460 lung) was > 100 µM, the GI50 (OVCAR-3 ovarian) was 21.9 µM and the TGI (OVCAR-3 ovarian) was 72.5 µM. The GI50 (OVCAR-5 ovarian) was > 100 µM, the TGI (OVCAR-5 ovarian) was > 100 µM and the GI50 (RXF 393 renal) was 48 µM. The TGI (RXF 393 renal) was > 100 µM.
With `O=C(/C=C/c1ccc(O)cc1)NCCc1ccc(O)cc1` the TGI (CCRF-CEM leukemia) was 11.4 µM, the TGI (HS 578T breast) was > 12.5 µM and the TGI (MCF7 breast) was > 12.5 µM. The TGI (NCI-H226 lung) was > 12.5 µM, the TGI (NCI-H460 lung) was > 12.5 µM and the TGI (OVCAR-3 ovarian) was > 12.5 µM. The TGI (OVCAR-5 ovarian) was > 12.5 µM and the TGI (RXF 393 renal) was > 12.5 µM.
For `CC(O)C(O)C(N)CC=O` (stereo not given), the TGI (CCRF-CEM leukemia) was > 500 µM, the TGI (DLD-1 colon) was > 500 µM and the TGI (HOP-18 NSCLC) was > 500 µM. The TGI (M19-MEL melanoma) was > 500 µM, the TGI (MCF7 breast) was > 500 µM and the TGI (NCI-H226 lung) was > 500 µM. For the same compound, the TGI (NCI-H460 lung) was > 500 µM, the TGI (OVCAR-3 ovarian) was > 500 µM and the TGI (OVCAR-5 ovarian) was > 500 µM. For the same compound, the TGI (RXF 393 renal) was > 500 µM and the TGI (SNB-78 CNS) was > 500 µM.
In the case of `COc1ccc(SC(C)(SC)c2ccccn2)c(OC)n1` (stereo not given), the TGI (HS 578T breast) was > 100 µM, the TGI (MCF7 breast) was > 100 µM and the TGI (NCI-H226 lung) was > 100 µM. The TGI (NCI-H460 lung) was > 100 µM, the TGI (OVCAR-3 ovarian) was > 100 µM and the TGI (OVCAR-5 ovarian) was > 100 µM. For the same compound, the TGI (RXF 393 renal) was > 100 µM.
`COc1cccc(-c2nc3c(C(=O)NCCN(C)C)cccc3[nH]2)c1` was tested, and the TGI (CCRF-CEM leukemia) was > 81.6 µM, the TGI (DLD-1 colon) was 63.1 µM and the TGI (HOP-18 NSCLC) was 62.6 µM. For the same compound, the TGI (M19-MEL melanoma) was 30.3 µM, the TGI (MCF7 breast) was > 100 µM and the TGI (NCI-H226 lung) was 35.7 µM. For the same compound, the TGI (NCI-H460 lung) was 34.6 µM, the TGI (OVCAR-3 ovarian) was > 75.9 µM and the TGI (OVCAR-5 ovarian) was 42.7 µM. The TGI (RXF 393 renal) was 56.7 µM and the TGI (SNB-78 CNS) was > 100 µM.
`Nc1nc(SCc2ccccc2)c2ncn(Cc3ccccc3)c2n1` was tested, and the TGI (CCRF-CEM leukemia) was > 100 µM, the TGI (HS 578T breast) was > 100 µM and the TGI (MCF7 breast) was > 100 µM. For the same compound, the TGI (NCI-H226 lung) was > 100 µM, the TGI (NCI-H460 lung) was > 100 µM and the TGI (OVCAR-3 ovarian) was > 100 µM. The TGI (OVCAR-5 ovarian) was > 100 µM and the TGI (RXF 393 renal) was > 100 µM.
In the case of `C[N+]1(C)CCC(C#N)(c2ccccc2)CC1`, the TGI (CCRF-CEM leukemia) was > 100 µM, the TGI (HS 578T breast) was > 100 µM and the TGI (MCF7 breast) was > 100 µM. The TGI (NCI-H460 lung) was > 100 µM, the TGI (OVCAR-5 ovarian) was > 100 µM and the TGI (RXF 393 renal) was > 100 µM.
For `O=S(=O)(c1ccc(I)cc1)N(c1ccccc1)S(=O)(=O)C(F)(F)C(F)(F)C(F)(F)C(F)(F)F`, the TGI (CCRF-CEM leukemia) was > 100 µM, the TGI (HS 578T breast) was 99.5 µM and the TGI (MCF7 breast) was > 100 µM. The TGI (NCI-H226 lung) was 58 µM, the TGI (NCI-H460 lung) was > 100 µM and the TGI (OVCAR-3 ovarian) was 50.9 µM. The TGI (OVCAR-5 ovarian) was 95.4 µM and the TGI (RXF 393 renal) was 78.6 µM.
With `[C-]#[O+].[C-]#[O+].[Ir].[O-]c1cccc2cccnc12` the TGI (DLD-1 colon) was > 100 µM, the TGI (HOP-18 NSCLC) was > 100 µM and the GI50 (NCI-H226 lung) was > 100 µM. The TGI (NCI-H226 lung) was > 100 µM, the GI50 (NCI-H460 lung) was > 100 µM and the TGI (NCI-H460 lung) was > 100 µM. For the same compound, the GI50 (OVCAR-5 ovarian) was > 100 µM, the TGI (OVCAR-5 ovarian) was > 100 µM and the GI50 (RXF 393 renal) was > 100 µM. The TGI (RXF 393 renal) was > 100 µM.
With `C=C1C(=O)OC2C1C(OC(=O)/C(C)=C/C)CC1(C)C(=O)CCC(=C)C21` (stereo not given) the TGI (CCRF-CEM leukemia) was > 80.9 µM, the TGI (HS 578T breast) was 78 µM and the TGI (MCF7 breast) was 18 µM. The TGI (NCI-H226 lung) was 55.9 µM, the TGI (NCI-H460 lung) was > 52.8 µM and the TGI (OVCAR-3 ovarian) was 19.7 µM. For the same compound, the TGI (OVCAR-5 ovarian) was 32 µM and the TGI (RXF 393 renal) was 11 µM.
Work on `CC1(C)COC(/C=C/C2=NC(C)(C)CO2)=N1` yielded a TGI (CCRF-CEM leukemia) of 28.8 µM, a TGI (HS 578T breast) of 23.1 µM and a TGI (MCF7 breast) of 33.1 µM. The TGI (NCI-H226 lung) was 59.4 µM, the TGI (NCI-H460 lung) was > 100 µM and the TGI (OVCAR-3 ovarian) was 30.8 µM. It also gave a TGI (OVCAR-5 ovarian) of 54.4 µM and a TGI (RXF 393 renal) of 34.5 µM.
With `O=C1c2ccccc2-c2ccc(N=[N+]([O-])c3ccc4c(c3)C(=O)c3ccccc3-4)cc21` the TGI (CCRF-CEM leukemia) was > 100 µM, the TGI (HS 578T breast) was > 100 µM and the TGI (MCF7 breast) was > 100 µM. The TGI (NCI-H226 lung) was > 100 µM, the TGI (NCI-H460 lung) was > 100 µM and the TGI (OVCAR-3 ovarian) was > 100 µM. For the same compound, the TGI (OVCAR-5 ovarian) was > 100 µM and the TGI (RXF 393 renal) was > 100 µM.
With `O=C(O)C1CC(c2ccccc2)=NN1c1ccccc1` (stereo not given) the TGI (CCRF-CEM leukemia) was > 100 µM, the TGI (HS 578T breast) was 81.6 µM and the TGI (MCF7 breast) was > 100 µM. The TGI (NCI-H226 lung) was > 100 µM, the TGI (NCI-H460 lung) was > 100 µM and the TGI (OVCAR-3 ovarian) was > 100 µM. The TGI (OVCAR-5 ovarian) was > 100 µM and the TGI (RXF 393 renal) was > 100 µM.

Reference: PubChem BioAssay (NCI)
